By Ki is commonly meant a measure of affinity in units of concentration, obtained from inhibition or displacement. A higher Ki goes with a looser hold on the target.

In the experiment the target is T1, murine MC1 receptor (Mus musculus, UniProt Q01727).
T1 construct: murine B16-F1 melanoma cells expressing MC1, but not other MC receptors, were used; endogenous in cells; host or cells: murine B16-F1 melanoma cells
T1 sequence (Q01727 whole entry): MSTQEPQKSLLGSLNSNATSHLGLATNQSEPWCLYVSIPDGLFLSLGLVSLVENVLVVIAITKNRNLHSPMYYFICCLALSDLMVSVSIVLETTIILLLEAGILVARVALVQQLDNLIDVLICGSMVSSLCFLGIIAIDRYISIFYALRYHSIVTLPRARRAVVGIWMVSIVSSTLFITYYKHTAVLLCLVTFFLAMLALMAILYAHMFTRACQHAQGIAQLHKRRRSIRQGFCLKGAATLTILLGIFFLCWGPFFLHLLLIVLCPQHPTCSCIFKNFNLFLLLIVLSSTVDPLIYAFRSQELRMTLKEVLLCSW
Briefly: [125I]-NDP-MSH radio-ligand binding, MC1 receptor (B16-F1 melanoma cells). The note with it: 90 min/22° C. The protocol: Determination of binding affinities for MC receptors was performed by [^125I]-[Nle4,D-Phe7]α-MSH ([^125I]-NDP-MSH) radio-ligand binding. In short, murine B16-F1 melanoma cells expressing MC1, but not other MC receptors, were used for binding affinity studies against the murine MC1 receptor (Siegrist et al.; 1988, J. Recept. Res., 8(1-4):323-43). For human MC3, MC4 and MC5 receptor affinities human recombinant CHO cells were used (Schioth et al. 1997, Neuropeptides 31:565-71, 1997). Cells were suspended in HEPES buffer and by use of microwell plates radio-ligands, as well as test compound, in the concentration range of 10^−10 to 10^−6 were added. After incubation at 37° C. (22° C. for the MC1 receptor assay) separation of bound and free [^125I]-NDP-MSH was done by multiple washings with buffer.
The results were expressed as a percent of control specific binding obtained in the presence of the test compounds. The IC50 values (concentration causing a half-maximal inhibition of control specific binding) and Hill coefficients (nH) were determined by non-linear regression analysis of the competition curves using Hill equation curve fitting. The inhibition constants (Ki) were calculated from the Cheng Prusoff equation (Ki=IC50/(1+(L/KD)), where L=concentration of radio-ligand in the assay, and KD=affinity of the radio-ligand for the receptor).
`N=C(N)NN=CC=Cc1cccn1-c1ccc(Cl)cc1` [Compound 1, [1-(4-chlorophenyl)-1H-pyrrol-2-yl-allylideneamino]guanidinium acetate] returned a Ki of 88 nM.
The value for `N=C(N)NN=CC=Cc1cccn1-c1ccccc1[N+](=O)[O-]` [Compound 2, [1-(2-nitrophenyl)-1H-pyrrol-2-yl-allylideneamino]guanidinium acetate] was 360 nM; that for `N=C(N)NN=CC=Cc1cccn1-c1ccccc1Br` [Compound 3, [1-(2-bromophenyl)-1H-pyrrol-2-yl-allylideneamino]guanidinium acetate] was 2.6 nM.

The values are drawn from patent US8058306B2, “Phenyl pyrrole aminoguanidine derivatives” (Action Pharma A/S, priority 2006, dated 2011).
